# According to US9587220B2, “Method for inducing cardiac differentiation of pluripotent stem cell” (Kyoto University, priority 2012, dated 2017):
# Entries after “also recorded” stand apart in the source; their conditions may differ. Read-outs that look alike come from different tables or passages of the source.
# Assays:
# [1] = tested on: WNT target genes in IMR90-1 hiPSCs; assay: Microarray and qPCR gene expression of WNT target genes; type: cell-based, human; settings: 12, 24 and 72 h after treatment
# Protocol: IMR90-1 iPSCs were cultured in cardiac differentiation medium containing serum. On Day 3, cells were treated with 10 μM KY02111 or 0.1% DMSO for 0, 12, or 24 h. Non-treated cells (0 h), cells treated with KY02111 for 12 h (KY12hr) or 24 h (KY24hr), and cells treated with 0.1% DMSO for 12 h (DMSO12hr) or 24 h (DMSO24hr) were used for microarray analysis. Total RNA was prepared using the RNeasy Mini Kit (Qiagen), according to the manufacturer's instructions. Synthesis of cDNA, in vitro transcription and biotin labeling cRNA, and hybridization to the Human Gene 1.0 ST array (Affymetrix) were performed according to Affymetrix protocols. Hybridized arrays were scanned using an Affymetrix GeneChip Scanner. Data normalization and further analysis were performed with GeneSpring GX (Agilent Technologies). Proportions of treated cells expressing genes relative to control (KY02111/DMSO) were calculated for each time point. […] The microarray data have been submitted to the Gene Expression Omnibus (GEO) public database at NCBI (GEO accession number, GSE33622).
# Total RNA was isolated with an RNeasy Mini Kit (QIAGEN). Genomic DNA was completely digested with DNase I (Invitrogen). Total RNA (0.5 μg) was subjected to cDNA synthesis using the SuperScript III Reverse Transcriptase (Invitrogen). qRT-PCR was performed in triplicate, using SYBER GREEN PCR Master Mix on a 7500 Real Time PCR System (Applied Biosystems). The cycling conditions were as follows: 10 min at 95° C.; 40 cycles, each consisting of 15 s at 95° C.; 1 min at 60° C. Total RNA from human adult heart tissue (BioChain) was used to evaluate the expression levels of cardiac marker genes for cardiomyocytes derived from hPSCs. All values were normalized with respect to GAPDH expression level and expressed relative to the corresponding values in human adult hearts (100%).
# [2] = tested on: human αMHC promoter-driven EGFP transgenic monkey ESCs; assay: αMHC promoter-driven GFP expression, cardiac differentiation of transgenic monkey ESCs (HCA); type: cell-based; settings: for intensity of the GFP signal driven by αMHC promoter: comparison of chemical and proteinaceous WNT inhibitors, FIG. 3b,c
# Text: To generate human αMHC promoter-driven EGFP-expressing monkey ESCs, the 918 bp upstream from the transcriptional starting site and the third exon just before the open reading frame were amplified from genomic DNAs of KhES-1 hESCs by PCR, using the following primer sets —forward primer, 5′- […]-3′ (SEQ ID No: 37); reverse primer, 5′- (including a SalI linker) 22 […]-3′ (SEQ ID No: 38)—and then ligated into pGEM-T Easy Vector (Promega). The HindIII/SalI fragment from the cloning vector was connected with pEGFP-1 (Clontech). The linearized αMHC-EFGP vector was introduced into CMK6.4 monkey ESCs by electroporation. Transgenic ESC clones were selectively grown with G418 (Sigma-Aldrich). The expression of EGEP was confirmed in beating colonies.
# The confluent (4-5 d after passage) αMHC-GFP transgenic monkey ESCs were dissociated enzymatically by CTK solution (Non-patent literature 1), and the ESC clumps (40-100 μm in diameter) were obtained using 40 and 100 μm Cell Strainers (BD Biosciences). The ESC clumps (approximately 5.0×10^3 cells well^−1) were transferred onto 96-well plates (Greiner Bio-One, 96-well black plate, Cat. No. 655090) and incubated in cardiac differentiation medium as described in (4) below. During Days 6-14 of cardiac differentiation, 9600 compounds from the chemical library (dissolved in DMSO) were screened using 96-well plates. Sixteen and 80 wells were used for the control (0.1% DMSO) and chemical compounds (1 per well), respectively. Final concentration of the each compound was approximately 1-5 μM. Medium containing small molecules was changed every 4 d. On Day 14, GFP fluorescence of ESCs was measured by whole-plate scanning, using the Metamorph imaging system (Molecular Device). Metamorph software was used to analyze the GFP fluorescence data and calculate Fluorescence Area, Total Fluorescence Intensity, Average Fluorescence Intensity, and number of GFP-positive colonies for each well. Hit compounds were determined by the following criteria: Average Fluorescence Intensity of a well with the compound was >6 SD greater than Average Fluorescence Intensity of the control (mean of 16 wells), and Total Fluorescence Intensity for the compound was >0 SD greater than the control; or Total Fluorescence Intensity of the compound was >4 SD greater than the control, and Average Fluorescence Intensity of the compound was >0 SD greater than the control. One hundred and twenty compounds passed these criteria and were retested using 8 wells for each compound.
# Confluent hESCs and hiPSCs were gently detached with CTK solution and transferred into Petri dishes (BD Biosciences) with Primate ES Cell Culture Medium (ReproCELL, Japan). Cells were held in suspension culture for 8-24 h to form aggregates. The sizes of hPSC aggregates (0.3-1 mm in diameter) are important for efficient differentiation. Following suspension culture, cell aggregates were attached to culture dishes (3-10×10^5 cells cm^−2) in cardiac differentiation medium: IMDM (Sigma), containing 20% FBS (Gibco), 1% MEM non-essential amino acid solution (Sigma), 1% Penicillin-Streptomycin (Gibco), 2 mM L-glutamine (Sigma), 0.001% 2-Mercaptoethanol (Gibco), and 0.005N NaOH, with 10 ng ml^−1 BMP4 (R&D Systems). The medium was changed to cardiac differentiation medium with 10 μM KY02111 and/or other WNT inhibitors added on Day 3 (hiPSC lines) or Day 4 (human or monkey ESC lines); XAV939 (Wako, Japan), IWP-2 (Santa Cruz Biotechnology), IWR-1 (Merck4Bioscience), IGFBP4 (R&D Systems), Dkk1 (R&D Systems) and the mixture of bFGF (R&D Systems), BMP4 (R&D Systems), VEGF (R&D Systems), DKK1 (R&D Systems), and Activin A (R&D Systems) (Non-patent literature 16). Medium was changed every 2-3 d. KY02111 and other WNT inhibitors were added until Day 9 for hiPSC lines and the monkey ESC line, or Day 14 for hESC lines. […]
# [3] = tested on: human αMHC promoter-driven EGFP transgenic monkey ESCs; assay: as above; type: cell-based
# [4] = tested on: KY-CM colony; assay: QT interval prolongation assay on microelectrode array; type: cell-based, human; settings: astemizole 300 pM to 30 μM, increased every 4 min
# Protocol: Microelectrode array (MEA) dishes (Multi Channel Systems, Reutlingen, Germany) were coated with ReproCoat (RCESD006, ReproCELL, Japan) in 5% CO2 for 1 h at 37° C. After coating, KY02111-induced cardiomyocytes at Day 30 were transferred into 1 ml of Cardiomyocyte Culture Medium (RCESD006, ReproCELL, Japan) on the MAE dish. Using a pipet tip or glass bar, the cardiomyocytes were gently moved onto the electrode and cultured overnight to attach to the MEA dishes. On the following day, the medium was changed into Cardiomyocyte Test Medium (RCESD003, ReproCELL, Japan). After confirming the presence of beating cardiomyocytes, the MEA dishes were attached to an MEA amplifier (Multi Channel Systems, Reutlingen, Germany), and electrocardiogram-like waves were recorded. After 2 min of recording, 300 pM astemizole (Sigma) or 0.1% DMSO were added, and the concentrations of astemizole (300 pM to 30 μM) were increased every 4 min. ECG-like waves were recorded after 2 min of each astemizole treatment. Beating rate, Na^+ amplitude, K^+ amplitude, and Na^+—K^+ interval were analyzed by LabChart™ software v7 (ADInstruments, Adelaide, Australia).
# [5] = tested on: KY02111-induced cardiomyocytes (KY-CMs); settings: depolarizing pulses -40 to +40 mV for 500 msec
# Protocol: Cells were isolated from beating hPSC-derived cardiomyocytes, using protease solution. The dissociated cells were cultured for 3-7 d on gelatin-coated cover glasses. Patch-clamp recordings were performed in a temperature-controlled room at approximately 25° C. Data from the whole cell patch-clamp configuration were recorded from spontaneously beating cells, using a HEKA EPC10 amplifier (HEKA Instruments Inc.). An external solution containing 140 mM NaCl, 5 mM KCl, 10 mM HEPES, 2 mM CaCl2, 1 mM MgCl2, and 10 mM glucose was adjusted to pH 7.2 with NaOH. A pipette solution containing 80 mM K-aspartate, 50 mM KCl, 1 mM MgCl2, 10 mM EGTA, 3 mM ATP-Mg, and 10 mM HEPES was adjusted to pH 7.2 with KOH. […] The inhibitors were obtained from Sigma-Aldrich. […] The current-voltage relationship was obtained by holding the membrane potential at −40 to −60 mV, and delivering a depolarizing pulse for 500 ms in a stepwise manner, in increments from −60 to 60 mV for INa, −40 to 40 mV for ICaL, −40 to 40 mV for IKs and IKr, and −50 to −140 mV for Ih.
molecule,measurement,setting,value
O=C1Nc2cc(Br)ccc2/C1=C1/Nc2ccccc2/C1=N\O [BIO],expression levels of WNT target genes by qPCR,[1],tended to augment
"O=C(Nc1cccc2cccnc12)c1ccc(N2C(=O)[C@@H]3[C@H](C2=O)[C@@H]2C=C[C@H]3C2)cc1 [IWR-1, reference compound]",intensity of the GFP signal driven by αMHC promoter,[2],increased
"COc1ccc(CCCC(=O)Nc2nc3ccc(Cl)cc3s2)cc1OC [KY02114, 2-(4-(3,4-dimethoxyphenyl)butanamide)-6-chlorobenzothiazole]",GFP expression level induced by N11474 and related compounds (structure-activity),[2]; DMSO=100%,induced the highest levels
COc1ccc2nc(NC(=O)Cc3ccc(OC)c(OC)c3)sc2c1 [N11474],GFP fluorescence of ESCs compared to DMSO,"[2]; chemical screening, treatment Days 6-14, P=0.015",significantly increased; also recorded: significantly enhanced
same,αMHC promoter-driven EGFP signal on Day 14,[3]; treatment after Day 8 (Days 8-12 or Days 10-14),less effective
same,αMHC promoter-driven EGFP signal on Day 14,[3]; treatment on Days 0-4,completely repressed GFP expression; also recorded: completely suppressed GFP expression
same,αMHC promoter-driven EGFP signal on Day 14,[3]; treatment on Days 4-8,maximized the increase in GFP expression; also recorded: most effective
same,αMHC promoter-driven EGFP signal on Day 14,[3]; treatment on Days 6-10,similarly effective to the screening protocol
COc1ccc(CCN2CCC(Nc3nc4ccccc4n3Cc3ccc(F)cc3)CC2)cc1 [astemizole],Na+-K+ interval of ECG-like waves,[4],prolonged
CCS(=O)(=O)N(C)[C@H]1c2cc(C#N)ccc2OC(C)(C)[C@@H]1O [chromanol293B],KCNQ1 current (IKs),[5],clearly detected
same,KCNQ1 current (IKs),[5]; listed as Chromanol293B,suppressed
"DKK1: proteinaceous WNT inhibitor (protein, UniProt O94907 32-266, looked up) Dickkopf-related protein 1: TLNSVLNSNAIKNLPPPLGGAAGHPGSAVSAAPGILYPGGNKYQTIDNYQPYPCAEDEECGTDEYCASPTRGGDAGVQICLACRKRRKRCMRHAMCCPGNYCKNGICVSSDQNHFRGEIEETITESFGNDHSTLDGYSRRTTLSSKMYHTKGQEGSVCLRSSDCASGLCCARHFWSKICKPVLKEGQVCTKHRRKGSHGLEIFQRCYCGEGLSCRIQKDHHQASNSSRLHTCQRH",intensity of the GFP signal driven by αMHC promoter,[2],increased
"IGFBP4: proteinaceous WNT inhibitor (protein, UniProt P22692 22-258, looked up) Insulin-like growth …: DEAIHCPPCSEEKLARCRPPVGCEELVREPGCGCCATCALGLGMPCGVYTPRCGSGLRCYPPRGVEKPLHTLMHGQGVCMELAEIEAIQESLQPSDKDEGDHPNNSFSPCSAHDRRCLQKHFAKIRDRSTSGGKMKVNGAPREDARPVPQGSCQSELHRALERLAASQSRTHEDLYIIPIPNCDRNGNFHPKQCHPALDGQRGKCWCVDRKTGVKLPGGLEPKGELDCHQLADSFRE",intensity of the GFP signal driven by αMHC promoter,[2],increased
